Experimental data reported in patent US5892099A, “3,7-dithiaprostanoic acid derivative” (Ono Pharmaceutical Co., Ltd., priority 1997, dated 1999).

Tests used:
[1] = molecular target: T1, mouse EP4 (Mus musculus, UniProt P32240); test: Binding assay using expression cell of the prostanoid receptor subtype (EP4), competition of specific 3H-PGE2 binding; settings: membrane fraction of EP4 expressing CHO cells; 2.5 nM 3H-PGE2; pH 6.0; 1 hour at room temperature; read-out: Dissociation constant for EP4 Ki
T1 construct: expressed in transfected cells; host or cells: CHO cells
Experimental: (§1) (I) Binding assay using expression cell of the prostanoid receptor subtype
(§2) The preparation of membrane fraction was carried out according to the method of Sugimoto et al (J. Biol. Chem. 267, 6463-6466 (1992)) using the prostanoid receptor subtypes (mouse EP3α, EP4) expressing CHO cells.
(§3) The standard assay mixture containing membrane fraction (0.5 mg/ml) and ^3 H-PGE2 in a final volume of 200 μl was incubated for 1 hour at room temperature. The reaction was terminated by the addition of 3 ml of ice-cold buffer. The mixture was rapidly filtered through a GF/B glass filter. The radioactivity associated with the filter was measured by liquid scintillation counting.
(§4) Kd and Bmax value were determined from Scatchard plots (Ann. N. Y. Sci., 51, 660 (1949)). Non-specific binding was calculated as the bound in the presence of an excess (2.5 μM) of unlabeled PGE2.
(§5) In the experiment for competition of specific ^3 H-PGE2 binding by the compounds of the present invention, 2.5 nM of ^3 H-PGE2 and various concentration of the compounds of the present invention were added. The following buffer was used in all reactions. Buffer: 10 mM potassium phosphate (pH 6.0), 1 mM EDTA, 10 mM MgCl2, 0.1M NaCl. The dissociation constant (Ki) of each compound was calculated by the following equation.

[2] = molecular target: T2, mouse EP3α (Mus musculus, UniProt P30557); test: Binding assay using expression cell of the prostanoid receptor subtype (EP3α), competition of specific 3H-PGE2 binding; settings: membrane fraction of EP3α expressing CHO cells; 2.5 nM 3H-PGE2; pH 6.0; 1 hour at room temperature; read-out: Dissociation constant for EP3α Ki
T2 construct: expressed in transfected cells; host or cells: CHO cells
T2 sequence (P30557 1-365): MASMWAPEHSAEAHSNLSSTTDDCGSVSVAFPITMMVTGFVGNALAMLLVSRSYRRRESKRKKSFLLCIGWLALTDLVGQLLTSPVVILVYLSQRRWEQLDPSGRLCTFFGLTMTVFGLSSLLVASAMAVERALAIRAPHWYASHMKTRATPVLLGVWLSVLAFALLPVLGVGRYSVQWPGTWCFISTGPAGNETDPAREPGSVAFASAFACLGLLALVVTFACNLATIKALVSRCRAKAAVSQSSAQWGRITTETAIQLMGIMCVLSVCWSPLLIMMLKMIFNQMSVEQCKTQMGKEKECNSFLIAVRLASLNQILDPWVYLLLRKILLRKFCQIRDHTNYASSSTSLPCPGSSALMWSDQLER
Experimental: as §1, §2, §3, §4, §5

T1 sequence (P32240 whole entry): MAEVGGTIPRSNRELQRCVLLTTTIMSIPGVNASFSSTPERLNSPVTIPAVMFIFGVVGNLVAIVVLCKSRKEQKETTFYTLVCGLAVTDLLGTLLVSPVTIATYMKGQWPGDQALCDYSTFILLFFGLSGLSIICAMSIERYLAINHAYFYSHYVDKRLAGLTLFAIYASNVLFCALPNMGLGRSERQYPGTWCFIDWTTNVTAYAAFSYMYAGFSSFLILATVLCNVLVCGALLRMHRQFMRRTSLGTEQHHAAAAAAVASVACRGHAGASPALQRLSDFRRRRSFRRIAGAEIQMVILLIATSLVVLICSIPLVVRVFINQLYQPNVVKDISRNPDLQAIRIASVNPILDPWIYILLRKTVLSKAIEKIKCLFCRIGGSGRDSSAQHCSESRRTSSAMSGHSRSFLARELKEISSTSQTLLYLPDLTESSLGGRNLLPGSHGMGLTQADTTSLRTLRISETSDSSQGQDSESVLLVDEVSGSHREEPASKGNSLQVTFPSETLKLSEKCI

| SMILES | Ki [1] | Ki [2] |
| --- | --- | --- |
| CC/C=C\CC(O)/C=C/C1C(O)CC(=O)C1SCCCSCC(=O)O (stereo not drawn) [Example 2(e), 11α,15α-dihydroxy-9-oxo-3,7-dithiaprost-13E,17Z-dienoic acid] | 0.91 nM | – |
| O=C(O)CSCCCSC1C(=O)CC(O)C1/C=C/C(O)CCCC1CC1 (stereo not drawn) [Example 2(q), 11α,15α-dihydroxy-9-oxo-19,20-methano-3,7-dithiaprost-13E-enoicacid] | 0.4 nM | – |
| CCCC[C@H](C)C[C@H](O)/C=C/[C@H]1[C@H](O)CC(=O)[C@@H]1SCCCSCC(=O)O [Example 2(b), 11α,15α-dihydroxy-9-oxo-17α,20-dimethyl-3,7-dithiaprost-13E-enoic acid] | 0.6 nM | – |
| O=C(O)CSCCCSC1C(=O)CC(O)C1/C=C/C(O)CC1CCCC1 (stereo not drawn) [Example 2(t), 11α,15α-dihydroxy-9-oxo-16-cyclopentyl-3,7-dithia-17,18,19,20-tetranorprost-13E-enoic acid] | 4.2 nM | – |
| CCCCC(C)CC(O)/C=C/C1C(O)CC(=O)C1SCCCSCC(=O)O (stereo not drawn) [Example 2(a), 11α,15α-dihydroxy-9-oxo-17β,20-dimethyl-3,7-dithiaprost-13E-enoic acid] | 0.8 nM | 10 nM |
| O=C(O)CSCCCSC1C(=O)CC(O)C1/C=C/C(O)CCc1ccccc1 (stereo not drawn) [Example 2(g), 11α,15α-dihydroxy-9-oxo-17-phenyl-18,19,20-trinor-3,7-dithiaprost-13E-enoic acid] | 6 nM | – |
| O=C(O)CSCCCS[C@H]1C(=O)C[C@@H](O)[C@@H]1/C=C/[C@@H](O)C1CCCCC1 [Example 2(h), 11α,15α-dihydroxy-9-oxo-15-cyclohexyl-3,7-dithia-16,17,18,19,20-pentanorprost-13E-enoic acid] | 22 nM | 610 nM |
| CCCC[C@H](C)[C@H](O)/C=C/[C@@H]1C(SCCCSCC(=O)O)C(=O)C[C@H]1O (stereo partly drawn) [Example 2(o), 11α,15α-dihydroxy-9-oxo-16β-methyl-3,7-dithiaprost-13E-enoic acid] | 0.2 nM | 25 nM |
| CCCCC(O)/C=C/C1C(O)CC(=O)C1SCCCSCC(=O)O (stereo not drawn) [Example 2(m), 11α,15α-dihydroxy-9-oxo-3,7-dithia-20-norprost-13E-enoic acid] | 1.4 nM | 23 nM |
| CCCCC[C@H](O)CC[C@@H]1C(SCCCSCC(=O)O)C(=O)C[C@H]1O (stereo partly drawn) [Example 2(d), 11α,15α-dihydroxy-9-oxo-3,7-dithiaprostanoic acid] | 1.6 nM | – |
| O=C(O)CSCCCSC1C(=O)CC(O)C1/C=C/C(O)Cc1ccccc1 (stereo not drawn) [Example 2(f), 11α,15α-dihydroxy-9-oxo-16-phenyl-17,18,19,20-tetranor-3,7-dithiaprost-13E-enoic acid] | 7 nM | 130 nM |
| CCCCCC(O)/C=C/C1C(O)CC(=O)C1SCCCSCC(=O)O (stereo not drawn) [Example 2, 11α,15α-dihydroxy-9-oxo-3,7-dithiaprost-13E-enoic acid] | 0.7 nM | 1500 nM |
| CCCCC(C)(O)C/C=C/C1C(O)CC(=O)C1SCCCSCC(=O)O (stereo not drawn) [Example 2(c), 11α,16β-dihydroxy-9-oxo-16α-methyl-3,7-dithiaprost-13E-enoic acid] | 5.6 nM | – |
| CCCCC[C@](C)(O)/C=C/[C@H]1[C@H](O)CC(=O)[C@@H]1SCCCSCC(=O)O [Example 2(k), 11α,15α-dihydroxy-9-oxo-15β-methyl-3,7-dithiaprost-13E-enoic acid] | 0.7 nM | 34 nM |
